Measured values: patent publication US7144880B2, “Compositions relating to novel compounds and targets thereof” (Regents of the University of Michigan, priority 2003, dated 2006)

Legend:
[1] = test system: ornithine decarboxylase (ODC); assay: ODC activity in treated cells, conversion of 3H-ornithine to putrescine; format: cell-based; conditions: cells treated 4 h
Protocol: In these experiments, the conversion of ornithine to putrescine was quantified using ^3H-ornithine. For comparisons, control cells were treated with vehicle control or difluoromethyl ornithine (DFMO), a potent inhibitor of ornithine decarboxylase (like Bz-423, DFMO is a potent anti-proliferative agent). […] The reduction in ODC activity was paralleled by a decrease in ODC protein levels measured under the same conditions.
As described above, Bz-423 induced apoptosis was signaled by an ROS response that arose from MRC complex III as a result of the state 3 to 4 transition. It was next sought to determine if the ROS response, critical for apoptosis, also mediated these effects on ODC. If the ROS was required for the decrease in ODC activity, it would likewise be implicated as potentially part of the anti-proliferative response to Bz-423. To test this, Ramos cells were treated with Bz-423, DFMO, or vehicle control for 4 h. In parallel, a second group of cells was pre-incubated with MnTBAP to limit the ROS and then cultured with Bz-423, DFMO, and vehicle control.

[2] = molecular target: T1, bovine serum albumin (BSA) (Bos taurus, UniProt P02769); assay: Binding to serum albumin in tissue culture media; format: in vitro ADME; conditions: tissue culture media containing 10% (v/v) FBS
T1 construct: from tissue; host or cells: fetal bovine serum (10% v/v) in tissue culture media
Protocol: Like most 1,4-benzodiazepines, Bz-423 binds strongly to bovine serum albumin (BSA), which reduces the effective concentration of drug free in solution. For example, in tissue culture media containing 10% (v/v) fetal bovine serum (FBS), ca. 99% of the drug is bound to BSA. Therefore, cell culture cytotoxicity assays are conducted in media with 2% FBS to reduce binding to BSA and increase the free [Bz-423]. Under these conditions, the dose response-curve is quite sharp such that there is a limited concentration range at which Bz-423 is only partly effective. Since some benzodiazepines are known to have anti-proliferative properties, the effect of Bz-423 at concentrations <ED50 were carefully analyzed and observed that in addition to inducing apoptosis, Bz-423 prevented cell growth after 3 d in culture. In these low serum conditions, the cytotoxic and anti-proliferative effects overlapped making it difficult to study each effect independently. […] While higher amounts of drug may also block proliferation, it caused apoptosis well before the effects on proliferation could be observed.

[3] = molecular target: T2, mitochondrial F1F0-ATPase (Bos taurus, UniProt P13621); assay: ATPase activity in sub-mitochondrial particles (SMPs); format: biochemical, bovine; conditions: bovine SMPs; read-out: ED50, inhibition of mitochondrial ATPase activity
T2 construct: from tissue
Description: Oligomycin, a macrolide natural product that binds to the mitochondrial F1F0-ATPase, induces a state 3 to 4 transition and generates O2^− like Bz-423. Based on these similarities, it is possible that the F1F0-ATPase is also the molecular target for Bz-423. To test this hypothesis, the effect of Bz-423 on ATPase activity in sub-mitochondrial particles (SMPs) was examined.
>40 derivatives of Bz-423 were developed to determine the elements on this novel agent required for biological activity. […] The potency of these analogues in cell based assays correlated with the ED50 values in ATPase inhibition experiments using SMPs.

T1 sequence (P02769 25-607): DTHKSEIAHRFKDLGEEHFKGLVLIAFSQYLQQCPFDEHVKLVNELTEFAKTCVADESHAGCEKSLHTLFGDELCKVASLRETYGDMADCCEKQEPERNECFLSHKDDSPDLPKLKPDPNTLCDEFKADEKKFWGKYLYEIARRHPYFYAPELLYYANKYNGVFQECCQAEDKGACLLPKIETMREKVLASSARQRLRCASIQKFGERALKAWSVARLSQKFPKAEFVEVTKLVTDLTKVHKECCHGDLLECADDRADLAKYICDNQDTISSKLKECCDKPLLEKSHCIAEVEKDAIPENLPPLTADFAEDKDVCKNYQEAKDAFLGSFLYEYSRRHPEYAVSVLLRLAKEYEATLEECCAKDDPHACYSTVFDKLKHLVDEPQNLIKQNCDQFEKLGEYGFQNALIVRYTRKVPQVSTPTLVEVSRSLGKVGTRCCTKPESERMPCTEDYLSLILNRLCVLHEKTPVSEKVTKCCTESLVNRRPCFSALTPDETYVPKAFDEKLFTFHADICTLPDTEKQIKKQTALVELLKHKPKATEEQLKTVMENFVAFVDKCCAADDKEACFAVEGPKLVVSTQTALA

CN1C(=O)C(Cc2ccc3ccccc3c2)N=C(c2ccc(O)cc2)c2cc(Cl)ccc21 (stereo not drawn) [Bz-423]
Effect on ODC activity [1]: significantly reduced ODC activity | Drug bound to BSA [2]: ca. 99% | EC50 [3]: ~5 µM
